Test results from patent publication US20120264685A1 (priority 2009, published 2012).
Where a SMILES comes first, the peptide text is derived from it. [ ]: non-standard residue; d: D form. ξ: configuration not given here. ξαMeBip(2'-Et,4'-OMe) = CCc1cc(OC)ccc1-c1ccc(CC(C)(N)C(=O)O)cc1; ξBip(2'-Et-4'-OMe) = CCc1cc(OC)ccc1-c1ccc(CC(N)C(=O)O)cc1; ξαMePhe(2,6-F2) = CC(N)(Cc1c(F)cccc1F)C(=O)O; ξαMe(hhPhe) = CC(N)(CCCc1ccccc1)C(=O)O; ξαMePhe(2-F) = CC(N)(Cc1ccccc1F)C(=O)O; ξαMeD = CC(N)(CC(=O)O)C(=O)O; ξαMeP = CC1(C(=O)O)CCCN1; ξαMeS = CC(N)(CO)C(=O)O; Aib = CC(C)(N)C(=O)O

Assays:
[1] = system: RIN5F (Rat Insulinoma) cells; test: In vitro glucose-dependent insulin secretion (RIN5F cell assay); format: cell-based; conditions: 16.7-mM glucose load, n = 3, mean ± S.D.
Outline: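 Rat RIN5F cells were preincubated 40 min in Krebs-Ringer buffer with 1.1 mM glucose and 0.5% BSA, pH 7.4, then exposed to test peptidomimetics for 30 min at 37 °C with 16.7 mM or 0 mM glucose. Supernatant insulin was measured by rat insulin ELISA and normalised to total protein (BCA), as pg/μg.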

[2] = target: DPP IV enzyme (Homo sapiens, UniProt P27487); test: Stability against DPP IV enzyme; format: in vitro ADME; conditions: 2 μM, 37° C.; for half-life: read-out: half-life (t1/2) with DPP-IV enzyme
Experimental: (§1) Different peptidomimetics (final concentration 2 μM) were incubated with either DPP IV (1:25 mU) or pooled human plasma (7.5 μL) or simulated gastric fluid (pH 1.5; composition HCl, NaCl and Pepsin) or simulated intestinal fluid (pH 7.5) or human liver microsomes, for 0, 2, 4, 6, 12 and 24 h (37° C.; 50 mM triethanolamine-HCl buffer; pH 7.8). […] Reactions were terminated by the addition of TFA/H2O ([…], 10% (v/v)). The reaction products were then applied to a Vydac C18 analytical column (4.6×250-mm) and the major degradation fragment separated from intact peptidomimetic. The column was equilibrated with TFA/H20, at a flow rate of 1 mL/min. Using 0.1% (v/v) TFA in 70% acetonitrile/H2O, the concentration of acetonitrile in the eluting solvent was raised from 0% to 28% over 10 min and from 28% to 42% over 30 min. The absorbance was monitored at 206 nm using UV detector and peaks were collected manually prior to ESI-MS analysis. Area under the curve was measured for test peptidomimetics and their metabolites and percentage degradation were calculated at each time point over a period of 24 h.

[3] = Stability in human plasma; format: in vitro ADME; conditions: 2 μM, 37° C.; for half-life: human, plasma, read-out: half-life (t1/2) in human plasma
Experimental: as §1

[4] = Stability in simulated gastric fluid; format: in vitro ADME; conditions: 2 μM, 37° C.; for half-life (t1/2) in simulated gastric fluid / half-life: pH 1.5; for % degradation in 24 h when incubated with simulated gastric fluid: pH 1.5, 24 h; for half-life: simulated gi fluid, read-out: half-life (t1/2) in simulated gastric fluid
Experimental: (§2) Reactions were terminated by the addition of TFA/H2O ([…], 10% (v/v)). […] The column was equilibrated with TFA/H20, at a flow rate of 1 mL/min. […] The absorbance was monitored at 206 nm using UV detector and peaks were collected manually prior to ESI-MS analysis.

[5] = Stability in simulated intestinal fluid; format: in vitro ADME; conditions: 2 μM, 37° C.; for half-life (t1/2) in simulated intestinal fluid / half-life: pH 7.5; for % degradation in 24 h when incubated with simulated intestinal fluid: pH 7.5, 24 h; for half-life: simulated gi fluid, read-out: half-life (t1/2) in simulated intestinal fluid
Experimental: as §2

[6] = Stability in liver microsomes; format: in vitro ADME, human; conditions: 2 μM, 37° C.; for half-life: human, microsomes, read-out: half-life (t1/2) in liver microsomes
Experimental: as §2

Chain of DPP IV enzyme (P27487 whole entry, species assumed, the tested form may be a part): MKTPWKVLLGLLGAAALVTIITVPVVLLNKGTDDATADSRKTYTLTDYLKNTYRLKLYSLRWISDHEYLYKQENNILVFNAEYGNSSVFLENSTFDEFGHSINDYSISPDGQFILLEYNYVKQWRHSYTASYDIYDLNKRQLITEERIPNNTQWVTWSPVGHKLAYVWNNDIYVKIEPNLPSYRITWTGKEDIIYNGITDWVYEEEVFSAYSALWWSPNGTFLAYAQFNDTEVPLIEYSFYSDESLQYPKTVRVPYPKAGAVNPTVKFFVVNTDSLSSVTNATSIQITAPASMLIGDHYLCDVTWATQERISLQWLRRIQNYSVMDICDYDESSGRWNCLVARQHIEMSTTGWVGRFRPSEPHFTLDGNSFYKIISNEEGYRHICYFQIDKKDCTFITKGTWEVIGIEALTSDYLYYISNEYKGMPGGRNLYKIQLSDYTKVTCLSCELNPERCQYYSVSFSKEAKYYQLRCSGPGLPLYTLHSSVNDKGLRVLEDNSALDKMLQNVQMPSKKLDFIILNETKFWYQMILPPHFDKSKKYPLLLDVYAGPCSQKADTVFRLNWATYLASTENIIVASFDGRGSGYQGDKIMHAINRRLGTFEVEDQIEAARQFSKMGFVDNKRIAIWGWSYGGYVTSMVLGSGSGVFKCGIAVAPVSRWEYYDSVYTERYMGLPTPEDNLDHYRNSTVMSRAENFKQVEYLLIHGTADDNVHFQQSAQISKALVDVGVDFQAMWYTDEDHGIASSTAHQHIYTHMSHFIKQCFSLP

| Structure (SMILES) | Insulin secretion ([1]; 0.1 nM test compd.) | Insulin secretion ([1]; 1 nM test compd.) | Insulin secretion ([1]; 10 nM test compd.) | % degradation in 24 h when incubated with DPP-IV enzyme [2] | half-life [2] | % degradation in 24 h when incubated with human plasma [3] | half-life [3] | half-life (t1/2) in simulated gastric fluid [4] | % degradation in 24 h when incubated with simulated gastric fluid [4] | half-life (t1/2) in simulated intestinal fluid [5] | % degradation in 24 h when incubated with simulated intestinal fluid [5] | % degradation in 24 h when incubated with liver microsomes [6] | half-life [6] | half-life [4] | half-life [5] | half-life (t1/2) in liver microsomes [6] |
| --- | --- | --- | --- | --- | --- | --- | --- | --- | --- | --- | --- | --- | --- | --- | --- | --- |
| CCc1cc(OC)ccc1-c1ccc(CC(NC(=O)[C@H](CC(=O)O)NC(=O)[C@H](CO)NC(=O)[C@@H](NC(=O)[C@H](Cc2ccccc2)NC(=O)[C@@H](NC(=O)CNC(=O)[C@H](CCC(N)=O)NC(=O)[C@H](CO)NC(=O)[C@H](Cc2c[nH]cn2)NC(=O)[C@@H](N)C(C)C)[C@@H](C)O)[C@@H](C)O)C(=O)NC(C)(CCCc2ccccc2)C(N)=O)cc1 (stereo partly drawn) [compound 81] (H-VHSQGTFTSD[ξBip(2'-Et-4'-OMe)][ξαMe(hhPhe)]-NH2) | 16.8 ± 0.20 pg/µg/h | 22.7 ± 0.29 pg/µg/h | 36.6 ± 0.31 pg/µg/h | 70% | 9 h | 71% | 8 h | (8) h | 14% | (6) h | 40% | 78% | 1 h |  |  |  |
| CCc1cc(OC)ccc1-c1ccc(CC(NC(=O)[C@H](CC(=O)O)NC(=O)[C@H](CO)NC(=O)[C@@H](NC(=O)C(C)(Cc2ccccc2F)NC(=O)[C@@H](NC(=O)CNC(=O)[C@H](CCC(N)=O)NC(=O)[C@H](C)NC(=O)[C@H](Cc2c[nH]cn2)NC(=O)[C@@H](N)C(C)C)[C@@H](C)O)[C@@H](C)O)C(=O)NC(C)(CCCc2ccccc2)C(N)=O)cc1 (stereo partly drawn) [compound 92] (H-VHAQGT[ξαMePhe(2-F)]TSD[ξBip(2'-Et-4'-OMe)][ξαMe(hhPhe)]-NH2) | 16.9 ± 0.22 pg/µg/h | 22.8 ± 0.31 pg/µg/h | 36.7 ± 0.34 pg/µg/h | 00% | > 24 h | 00% | > 24 h |  | 55% |  | 00% | 84% | 2 h | 4 h | > 24 h |  |
| CCc1cc(OC)ccc1-c1ccc(CC(NC(=O)C(C)(CC(=O)O)NC(=O)C(C)(CO)NC(=O)[C@@H](NC(=O)[C@H](Cc2ccccc2)NC(=O)[C@@H](NC(=O)CNC(=O)[C@H](CCC(N)=O)NC(=O)[C@H](C)NC(=O)[C@H](Cc2c[nH]cn2)NC(=O)[C@@H](N)C(C)C)[C@@H](C)O)[C@@H](C)O)C(=O)NC(C)(CCCc2ccccc2)C(N)=O)cc1 (stereo partly drawn) [compound 108] (H-VHAQGTFT[ξαMeS][ξαMeD][ξBip(2'-Et-4'-OMe)][ξαMe(hhPhe)]-NH2) | 11.9 ± 0.17 pg/µg/h | 14.2 ± 0.13 pg/µg/h | 27.6 ± 0.16 pg/µg/h | 00% | > 24 h | 00% | > 24 h |  | 00% |  | 00% | 33% |  | > 24 h | > 24 h | (5) h |
| CCc1cc(OC)ccc1-c1ccc(CC(C)(NC(=O)[C@H](CC(=O)O)NC(=O)C(C)(CO)NC(=O)[C@@H](NC(=O)C(C)(Cc2c(F)cccc2F)NC(=O)[C@@H](NC(=O)CNC(=O)[C@H](CCC(=O)O)NC(=O)[C@H](C)NC(=O)[C@H](Cc2c[nH]cn2)NC(=O)[C@@H](N)C(C)C)[C@@H](C)O)[C@@H](C)O)C(=O)NC(C)(CCCc2ccccc2)C(N)=O)cc1 (stereo partly drawn) [compound 178] (H-VHAEGT[ξαMePhe(2,6-F2)]T[ξαMeS]D[ξαMeBip(2'-Et,4'-OMe)][ξαMe(hhPhe)]-NH2) | 17.1 ± 0.11 pg/µg/h | 23.1 ± 0.16 pg/µg/h | 37.0 ± 0.29 pg/µg/h | 00% | > 24 h | 00% | > 24 h |  | 43% |  | 00% | 84% | 2 h | 4 h | > 24 h |  |
| CCc1cc(OC)ccc1-c1ccc(CC(C)(NC(=O)C(C)(CC(=O)O)NC(=O)[C@H](CO)NC(=O)[C@@H](NC(=O)[C@H](Cc2ccccc2)NC(=O)[C@@H](NC(=O)CNC(=O)[C@H](CCC(=O)O)NC(=O)C2(C)CCCN2C(=O)[C@H](Cc2c[nH]cn2)NC(=O)[C@@H](N)C(C)C)[C@@H](C)O)[C@@H](C)O)C(=O)NC(C)(CCCc2ccccc2)C(N)=O)cc1 (stereo partly drawn) [compound 188] (H-VH[ξαMeP]EGTFTS[ξαMeD][ξαMeBip(2'-Et,4'-OMe)][ξαMe(hhPhe)]-NH2) | 12.9 ± 0.14 pg/µg/h | 15.8 ± 0.13 pg/µg/h | 29.9 ± 0.15 pg/µg/h | 00% | > 24 h | 00% | > 24 h |  | 41% |  | 00% | 80% | 2 h | 4 h | > 24 h |  |
| CCc1cc(OC)ccc1-c1ccc(CC(C)(NC(=O)C(C)(CC(=O)O)NC(=O)[C@H](CO)NC(=O)[C@@H](NC(=O)C(C)(Cc2ccccc2F)NC(=O)[C@@H](NC(=O)CNC(=O)[C@H](CCC(N)=O)NC(=O)C(C)(C)NC(=O)[C@H](Cc2c[nH]cn2)NC(=O)[C@@H](N)C(C)C)[C@@H](C)O)[C@@H](C)O)C(=O)NC(C)(CCCc2ccccc2)C(N)=O)cc1 (stereo partly drawn) [compound 191] (H-VH[Aib]QGT[ξαMePhe(2-F)]TS[ξαMeD][ξαMeBip(2'-Et,4'-OMe)][ξαMe(hhPhe)]-NH2) | 16.1 ± 0.22 pg/µg/h | 22.1 ± 0.26 pg/µg/h | 36.0 ± 0.36 pg/µg/h | 76% | 9 h | 78% | 8 h | (8) h | 12% | (6) h | 55% | 79% | 1 h |  |  |  |
